Read-outs that look alike come from different tables or passages of the source.
Tests used:
[1] = target: T1, PDE4B2 (Homo sapiens, UniProt Q07343); test: In vitro PDE4B2 enzyme inhibitory activity (AMP-Glo); format: biochemical
T1 construct: purchased BPS bioscience
Experimental: 2.1.1 Preparing stock solutions of compounds in DMSO: Compound powders were dissolved in 100% DMSO to produce 10 mM stock solutions, and oscillated in a shaker until the compounds were completely dissolved.
2.1.3 Preparing working stock solutions: a) A solution of Roflumilast (reference compound) in DMSO was diluted to 60 μM, and then serially diluted 4-fold into 10 concentration gradients. B) The solutions of the test compounds in DMSO were diluted to 200 μM, and then serially diluted 3-fold. C) A 200× positive control (60 μM Roflumilast) and a 200× vehicle control (100% DMSO) were prepared. D) The assay plate was centrifuged at 1000 rpm for 1 minute.
(1) 20 nL of compound dilution solutions were transferred with Echo 550 into each well of the assay plate.
(2) The assay plate was sealed and centrifuged at 1000 rpm for 1 minute.
(3) 2×PDE4B2/PDE4D2 was prepared in an ice-cold PDE assay buffer.
(4) 2 μL of 2×PDE4B2/PDE4D2 was added to each well of the assay plate prepared in step 2.
(5) The assay plate was sealed and allowed to equilibrate at room temperature for 10 minutes.
(6) 2× Cyclic-3′,5′-AMP was prepared in a PDE assay buffer.
7) 2 μL of 2× Cyclic-3′,5′-AMP (prepared in step 6) was added to each well of the assay plate (prepared in step 5) to initiate the reaction. The plate was incubated at room temperature for 60 minutes.
8) 4 μL AMP-Glo Reagent I was added, and the plate was incubated at room temperature for 60 minutes.
9) 8 μL AMP detection reagent was added. The plate was incubated at room temperature for 60 minutes.
10) The RLU signal was read on an Envision 2105 plate reader.

[2] = Pharmacokinetic assay in mice, plasma concentration by LC-MS/MS; format: in vivo, CD-1 male mice; details: male, CD-1, mouse
Experimental: Assay 2: Pharmacokinetic Assay by Using LC-MS/MS to Determine the Compound Concentration in Mice
Assay principle: LC-MS/MS was used to determine the drug concentration of the target drug in plasma at different times, and to plot the pharmacokinetic curve of the target compound in vivo.
An accurately weighed amount of the test compound was dissolved in 5% DMSO (INNOCHEM, INBZZHCAE) by vortex mixing. Subsequently, 10% Solutol (BASF, 75389809T0) was added and homogenized by vortexing.
Finally, 85% saline (Fengyuan, 220505102) was incorporated with vortex mixing to achieve dosing formulations at 0.4 mg/mL and 1.0 mg/mL.
The mice were sourced from CD-1 male mice (JH Laboratory Animal Co. LTD), with three mice for each group.
The mice were administered with 2 mg/kg intravenously (IV) or 10 mg/kg by oral gavage (PO). The blood samples were collected at 5 min (IV group only), 15 min, 30 min, 1 h, 2 h, 4h, 8h, and 24h (PO group only) after administration.
Approximately 30 μL blood samples were collected at each time point and placed into anticoagulant tubes containing EDTA-K2 anticoagulant. Plasma was obtained by centrifugation within 30 minutes. Whole blood samples before centrifugation were placed on wet ice. For each test compound, 42 plasma samples were collected.
All collected plasma samples were stored on dry ice or in a freezer until analysis. The drug concentration was determined using a Triple-quadrupole MS system (SCIEX), including standard curve and quality control preparation, and sample preparation.
Standard curve and quality control preparation: a working solution was prepared by ACN:H2O (1:1) dilution, and 3 μL of the above standard curve and quality control working solution was added to 57 μL of blank plasma.
Sample preparation: 7 μL of plasma sample was added to 70 μL of internal standard solution (Propranolol, Tolbutamide, Glipizide, Osalmid, each 200 ng/mL in ACN). The mixture was mixed for 5 minutes and centrifuged at 4000 rpm for 10 minutes. 50 μL of supernatant was taken and transferred to a new plate containing 200 μL ultrapure water for sample analysis.
Chromatographic conditions were optimized for each sample, regarding mobile phase composition, elution gradient conditions, flow rate, retention time, etc. The chromatographic column was Waters Acquity UPLC HSS T3 1.8 μm, 2.1×50 mm. The injection volume was 2 μL.
An electrospray ionization source was used in mass spectrometry. In the positive ion detection mode, the multi-channel reaction monitoring (MRM) mode was selected for secondary mass spectrometry analysis.
Based on the drug concentration-time data, pharmacokinetic parameters were calculated using WinNonlin 8.2 software according to a non-compartmental model, including peak concentration Cmax, peak time Tmax, area under the drug-time curve AUC, and elimination half-life t1/2. The AUC was calculated using the linear trapezoidal method (linear up log down).

[3] = PDE4B2 enzyme inhibition, read-out: PDE4B2 IC50
[4] = read-out: IC50 values of PDE4B2 enzyme inhibition

T1 sequence (Q07343 1-564 isoform Q07343-2): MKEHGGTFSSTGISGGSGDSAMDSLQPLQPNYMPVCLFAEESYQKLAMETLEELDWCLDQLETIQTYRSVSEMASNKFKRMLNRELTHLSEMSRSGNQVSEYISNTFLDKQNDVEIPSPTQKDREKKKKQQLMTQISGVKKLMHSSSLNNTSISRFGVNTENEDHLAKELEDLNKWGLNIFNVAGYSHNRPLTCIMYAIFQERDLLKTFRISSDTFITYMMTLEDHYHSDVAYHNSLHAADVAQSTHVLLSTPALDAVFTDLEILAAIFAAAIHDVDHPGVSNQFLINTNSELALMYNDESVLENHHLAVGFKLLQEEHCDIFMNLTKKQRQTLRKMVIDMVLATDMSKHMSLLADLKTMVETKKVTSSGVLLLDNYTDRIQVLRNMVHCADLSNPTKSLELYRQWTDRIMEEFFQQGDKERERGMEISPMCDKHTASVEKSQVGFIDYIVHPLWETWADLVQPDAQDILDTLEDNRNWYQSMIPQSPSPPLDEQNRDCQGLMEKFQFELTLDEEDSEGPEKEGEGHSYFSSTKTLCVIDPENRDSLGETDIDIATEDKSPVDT

SMILES: [O-][S+]1CCc2nc(N3Cc4ccc(Cl)cc4C3)nc(NC3(CO)CCC3)c21 (racemic) [Compound 25, (R/S)-2-(5-chloroisoindolin-2-yl)-4-((1-(hydroxymethyl)cyclobutyl)amino)-6,7-dihydrothieno[3,2-d]pyrimidine 5-oxide]
- IC50 [1, 3]: 2 to 5 nM
- AUC(0-inf) ([2]; IV, 2 mg/kg): 17600 ng·h/mL
- clearance ([2]; IV, 2 mg/kg): 2.4 mL/min/kg
- half-life ([2]; IV, 2 mg/kg): 5.01 h
- AUC(0-inf) ([2]; PO, 10 mg/kg): 23100 ng·h/mL
- Cmax ([2]; PO, 10 mg/kg): 5950 ng/mL
- Tmax ([2]; PO, 10 mg/kg): 1.33 h

SMILES: COc1cc(C2(O)CN(c3nc4c(c(NC5CCOCC5)n3)[S+]([O-])CC4)C2)ccc1Cl (racemic) [Compound 81, (R/S)-2-(3-(4-chloro-3-methoxyphenyl)-3-hydroxyazetidin-1-yl)-4-((tetrahydro-2H-pyran-4-yl)amino)-6,7-dihydrothieno[3,2-d]pyrimidine 5-oxide]
- IC50 [1, 3]: 2 to 5 nM

SMILES: [O-][S+]1CCc2nc(N3CCC(c4ncc(Cl)cn4)CC3)nc(NC3(CO)CCC3)c21 (stereo not shown) [Control 1, reference compound]
- IC50 [1, 3]: 20 to 50 nM
- AUC(0-inf) ([2]; IV, 2 mg/kg): 2900 ng·h/mL
- clearance ([2]; IV, 2 mg/kg): 11.8 mL/min/kg
- half-life ([2]; IV, 2 mg/kg): 1.57 h
- AUC(0-inf) ([2]; PO, 10 mg/kg): 12100 ng·h/mL
- Cmax ([2]; PO, 10 mg/kg): 2250 ng/mL
- Tmax ([2]; PO, 10 mg/kg): 0.5 h

SMILES: [O-][S+]1CCc2nc(C3=CCN(c4ncc(Cl)cn4)CC3)nc(NC3(CO)CCC3)c21 (racemic) [Compound 16, (R/S)-2-(1-(5-chloropyrimidin-2-yl)-1,2,3,6-tetrahydropyridin-4-yl)-4-((1-(hydroxymethyl)cyclobutyl)amino)-6,7-dihydrothieno[3,2-d]pyrimidine 5-oxide]
- IC50 [1, 3]: 2 to 5 nM

SMILES: COC1(c2ccc(OC(F)F)cc2)CN(c2nc3c(c(NC4(CO)CCC4)n2)[S+]([O-])CC3)C1 (racemic) [Compound 105, (R/S)-2-(3-(4-(difluoromethoxy)phenyl)-3-methoxyazetidin-1-yl)-4-((1-(hydroxymethyl)cyclobutyl)amino)-6,7-dihydrothieno[3,2-d]pyrimidine 5-oxide]
- IC50 [1, 3]: ≤ 2 nM
- IC50 [1, 4]: < 1 nM

SMILES: COc1ccc(C2(OC)CN(c3nc4c(c(NC5CCOCC5)n3)[S+]([O-])CC4)C2)cc1 (racemic) [Compound 108, (R/S)-2-(3-methoxy-3-(4-methoxyphenyl)azetidin-1-yl)-4-((tetrahydro-2H-pyran-4-yl)amino)-6,7-dihydrothieno[3,2-d]pyrimidine 5-oxide]
- IC50 [1, 3]: ≤ 2 nM
- IC50 [1, 4]: < 1 nM

SMILES: CC(C)(O)c1ccc2c(c1)CN(c1nc3c(c(NC4(CO)CCC4)n1)[S+]([O-])CC3)C2 (racemic) [Compound 29, (R/S)-4-((1-(hydroxymethyl)cyclobutyl)amino)-2-(5-(2-hydroxypropan-2-yl)isoindolin-2-yl)-6,7-dihydrothieno[3,2-d]pyrimidine 5-oxide]
- IC50 [1, 3]: ≤ 2 nM

SMILES: COc1ccc(C2(O)CN(c3nc4c(c(NC5(CO)CCC5)n3)[S+]([O-])CC4)C2)cc1Cl (racemic) [Compound 4, (R/S)-2-(3-(3-chloro-4-methoxyphenyl)-3-hydroxyazetidin-1-yl)-4-((1-(hydroxymethyl)cyclobutyl)amino)-6,7-dihydrothieno[3,2-d]pyrimidine 5-oxide]
- IC50 [1, 3]: 2 to 5 nM

— patent publication US20260242393A1, “Preparation Method for and Use of Dihydrothienopyrimidine Derivative” (Innovstone Therapeutics Limited, priority 2023, published 2026)
